Assay results: patent US11339171B2, “MDM2 inhibitors” (Gan & Lee Pharmaceuticals, priority 2017, dated 2022)

Key:
MDM2 = molecular target: T1, MDM2 (Homo sapiens, UniProt Q00987); experiment: Inhibition test of MDM2-P53 (GST-MDM2, Biotin-P53, Anti-GST-Tb, SA-XL665); type: binding; settings: for inhibitory effect on MDM2 compared with positive control compound HDM201: labels are Example numbers, the compounds with S-configuration are meant
T1 construct: made in house
Method in brief: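 Binding was measured by TR-FRET with GST-MDM2 at 4 nM final in PBS with 0.1% BSA, 5 mM DTT and 1 mM AEBSF. Compounds were tested as twelve-point 5-fold dilutions and incubated with the detection mix for 90 min at 25 °C with shaking before plate-reader reading and curve fitting.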

[1] = tested on: human osteosarcoma cell line SJSA-1; experiment: Inhibition of proliferation of human osteosarcoma cell line SJSA-1 (DAPI staining, In Cell Analyzer); settings: for inhibitory effect on human osteosarcoma cell line SJSA-1 compared with positive control compound HDM201: labels are Example numbers, the compounds with S-configuration are meant; for IC50: Homo sapiens, SJSA-1, 72 h, read-out: IC50 (nM), inhibitory activity on proliferation of human osteosarcoma cell line SJSA-1, SJSA-1, incubated 72 h
Experimental: 2.2 Experiment Preparation:
2.2.1 Preparation of a culture medium for human osteosarcoma cell line SJSA-1: RPMI1640+10% FBS+1% penicillin/streptomycin
2.2.2 Preparation of a test compound solution:
a. the test compound solution with a certain concentration was taken, and diluted with the culture medium to obtain a compound solution with a final concentration of 20 μM;
b. 200 μL of a culture medium containing 0.2% DMSO (dimethyl sulfoxide) was added into H2-H10 of a 96-well plate; 300 μl of the above solution was added into H1; and
c. 100 μL was taken out from well H1, added into H2, and mixed well; then 100 μl of the resultant solution was taken and added into H3, and dilution was carried out in sequence until H9 to obtain the 3-fold serial dilution of the test compound.
2.3 Experimental Process:
2.3.1 SJSA-1 cells were inoculated into a 96-well cell plate with black transparent bottom at 4000 cells/100 μl/well, and cultured overnight at 37° C.;
2.3.3 Fixation: the cell plate was taken out, the culture medium was removed, and 50 μL of 4% paraformaldehyde solution was added to each well to fix for 10 min;
2.3.4 50 μl of 0.1 M glycine was added to neutralize for 10 min;
2.3.5 Washing was performed with 1×PBS (phosphate buffer solution pH7.2) twice;
2.3.6 Permeabilization: 50 μL of 0.2% TritonX-100 (Triton) was added per well, and permeabilization was carried out at room temperature for 10 min;
2.3.7 Washing was performed with 1×PBS (phosphate buffer solution pH7.2) twice;
2.3.9 Washing was performed with 1×PBS (phosphate buffer solution pH7.2) for three times; and
2.3.10 Scanning and analysis were performed by In cell analyzer.
The inhibition rate of each compound at each concentration point was calculated according to the following formula, and curve fitting was performed by GraphPad Prism 6.0 software to obtain the IC50 value.

T1 sequence (Q00987 whole entry): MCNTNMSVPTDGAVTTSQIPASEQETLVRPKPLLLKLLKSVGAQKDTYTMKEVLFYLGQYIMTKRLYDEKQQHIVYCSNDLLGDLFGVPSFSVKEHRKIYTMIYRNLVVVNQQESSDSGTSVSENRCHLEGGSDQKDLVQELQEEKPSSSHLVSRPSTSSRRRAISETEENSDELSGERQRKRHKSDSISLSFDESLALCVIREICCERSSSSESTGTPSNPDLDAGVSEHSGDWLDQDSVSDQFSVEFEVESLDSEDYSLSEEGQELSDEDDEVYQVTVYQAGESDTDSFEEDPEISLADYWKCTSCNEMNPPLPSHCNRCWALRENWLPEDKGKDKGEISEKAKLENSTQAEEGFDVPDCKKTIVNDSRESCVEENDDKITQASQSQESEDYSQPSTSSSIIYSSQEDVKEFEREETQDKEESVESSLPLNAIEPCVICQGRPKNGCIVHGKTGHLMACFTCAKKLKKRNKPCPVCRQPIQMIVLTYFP

Row | SMILES | inhibitory effect on MDM2 compared with positive control compound HDM201 (MDM2) | inhibitory effect on human osteosarcoma cell line SJSA-1 compared with positive control compound HDM201 [1] | IC50 (MDM2) [µM] | IC50 [1] [nM]
1 | COc1cc(OCC(F)F)ncc1-c1nc2c(n1C(C)C)C1(C(=O)Nc3cc(Cl)ccc31)N(c1cc(Cl)ccc1C)C2=O (stereo not drawn) [Example 153, 6-chloro-5′-(5-chloro-2-methylphenyl)-2′-(6-(2,2-difluoroethoxy)-4-methoxypyridin-3-yl)-3′-isopropyl-3′H-spiro[dihydroindole-3,4′-pyrrolo[3,4-d]imidazole]-2,6′(5′H)-dione] | better | better |  | 
2 | COc1ccc(N2C(=O)c3nc(-c4ccc(N)cc4OC)n(C(C)C)c3[C@@]23C(=O)Nc2cc(Cl)ccc23)cc1Cl [Example S-71, (S)-2′-(4-amino-2-methoxyphenyl)-6-chloro-5′-(3-chloro-4-methoxyphenyl)-3′-isopropyl-3′H-spiro[dihydroindole-3,4′-pyrrolo[3,4-d]imidazole]-2,6′(5′H)-dione] |  |  | 0.00296 | 292
3 | CCc1ccc(OC)c(-c2nc3c(n2C(C)C)[C@@]2(C(=O)Nc4cc(Cl)ccc42)N(c2cc(Cl)ccc2C)C3=O)c1 [Example S-37, (S)-6-chloro-5′-(5-chloro-2-methylphenyl)-2′-(5-ethyl-2-methoxyphenyl)-3′-isopropyl-3′H-spiro[dihydroindole-3,4′-pyrrolo[3,4-d]imidazole]-2,6′(5′H)-dione] |  |  | 0.022 | 14.2
4 | COc1cc(C(F)(F)F)ccc1-c1nc2c(n1C(C)C)[C@]1(C(=O)Nc3cc(Cl)ccc31)N(c1cc(Cl)cnc1C)C2=O [Example R-144, (R)-6-chloro-5′-(5-chloro-2-methylpyridin-3-yl)-3′-isopropyl-2′-(2-methoxy-4-(trifluoromethyl)phenyl)-3′H-spiro[dihydroindole-3,4′-pyrrolo[3,4-d]imidazole]-2,6′(5′H)-dione] |  |  | 0.119 | 2450
5 | COc1ccc(-c2nc3c(n2C(C)C)[C@]2(C(=O)Nc4cc(Cl)ccc42)N(c2cc(Cl)cnc2C)C3=O)c(OC)c1 [Example R-61, (R)-6-chloro-5′-(5-chloro-2-methylpyridin-3-yl)-2′-(2,4-dimethoxyphenyl)-3′-isopropyl-3′H-spiro[dihydroindole-3,4′-pyrrolo[3,4-d]imidazole]-2,6′(5′H)-dione] |  |  | 0.136 | 136
6 | COc1cc(C2CC2)ccc1-c1nc2c(n1C(C)C)[C@@]1(C(=O)Nc3cc(Cl)ccc31)N(c1cc(Cl)cnc1C)C2=O [Example S-145, (S)-6-chloro-5′-(5-chloro-2-methylpyridin-3-yl)-2′-(4-cyclopropyl-2-methoxyphenyl)-3′-isopropyl-3′H-spiro[dihydroindole-3,4′-pyrrolo[3,4-d]imidazole]-2,6′(5′H)-dione] |  |  | 0.00205 | 28.2
7 | COc1cc(N)ccc1-c1nc2c(n1C(C)C)[C@]1(C(=O)Nc3cc(Cl)ccc31)N(c1cc(Cl)ccc1F)C2=O [Example R-66, (R)-2′-(4-amino-2-methoxyphenyl)-6-chloro-5′-(5-chloro-2-fluorophenyl)-3′-isopropyl-3′H-spiro[dihydroindole-3,4′-pyrrolo[3,4-d]imidazole]-2,6′(5′H)-dione] |  |  | 0.0859 | 3860
8 | COc1cc(F)ccc1-c1nc2c(n1C(C)C)[C@@]1(C(=O)Nc3cc(Cl)ccc31)N(c1cc(Cl)ccc1C)C2=O [Example S-4, (S)-6-chloro-5′-(5-chloro-2-methylphenyl)-2′-(4-fluoro-2-methoxyphenyl)-3′-isopropyl-3′H-spiro[dihydroindole-3,4′-pyrrolo[3,4-d]imidazole]-2,6′(5′H)-dione] |  |  | 0.00337 | 7.92
9 | COc1cc(OC)c(-c2nc3c(n2C(C)C)[C@]2(C(=O)Nc4cc(Cl)ccc42)N(c2cccc(Cl)c2)C3=O)cn1 [Example R-115, (R)-6-chloro-5′-(3-chlorophenyl)-2′-(4,6-dimethoxypyridin-3-yl)-3′-isopropyl-3′H-spiro[dihydroindole-3,4′-pyrrolo[3,4-d]imidazole]-2,6′(5′H)-dione] |  |  | 0.269 | 26.9
10 | COc1cc(C2CC2)ccc1-c1nc2c(n1C(C)C)[C@@]1(C(=O)Nc3cc(Cl)ccc31)N(c1cc(Cl)ccc1C)C2=O [Example S-86, (S)-6-chloro-5′-(5-chloro-2-methylphenyl)-2′-(4-cyclopropyl-2-methoxyphenyl)-3′-isopropyl-3′H-spiro[dihydroindole-3,4′-pyrrolo[3,4-d]imidazole]-2,6′(5′H)-dione] |  |  | 0.00259 | 21.2
11 | COc1ncc(-c2nc3c(n2C(C)C)[C@@]2(C(=O)Nc4cc(Cl)ccc42)N(c2cc(Cl)ccc2OC)C3=O)c(OC)n1 [Example S-17, (S)-6-chloro-5′-(5-chloro-2-methoxyphenyl)-2′-(2,4-dimethoxypyrimidin-5-yl)-3′-isopropyl-3′H-spiro[dihydroindole-3,4′-pyrrolo[3,4-d]imidazole]-2,6′(5′H)-dione] |  |  | 0.00375 | 201
12 | COc1cc(OC)c(-c2nc3c(n2C(C)C)C2(C(=O)Nc4cc(Cl)ccc42)N(c2cc(Cl)ccc2C)C3=O)cn1 (stereo not drawn) [Example 11, 6-chloro-5′-(5-chloro-2-methylphenyl)-2′-(4,6-dimethoxypyridin-3-yl)-3′-isopropyl-3′H-spiro[dihydroindole-3,4′-pyrrolo[3,4-d]imidazole]-2,6′(5′H)-dione] | better | better |  | 
13 | COc1cc(OC)c(-c2nc3c(n2C(C)C)C2(C(=O)Nc4cc(Cl)ccc42)N(c2cc(Cl)ccc2C)C3=O)cc1F (stereo not drawn) [Example 92, 6-chloro-5′-(5-chloro-2-methylphenyl)-2′-(5-fluoro-2,4-dimethoxyphenyl)-3′-isopropyl-3′H-spiro[dihydroindole-3,4′-pyrrolo[3,4-d]imidazole]-2,6′(5′H)-dione] | better | better |  | 
14 | COc1ncc(-c2cc3c(n2C(C)C)[C@@]2(C(=O)Nc4cc(Cl)ccc42)N(c2cc(Cl)ccc2C)C3=O)c(OC)n1 [Example S-50, (S)-6-chloro-5′-(5-chloro-2-methylphenyl)-2′-(2,4-dimethoxypyrimidin-5-yl)-1′-isopropyl-1′H-spiro[dihydroindole-3,6′-pyrrolo[3,4-b]pyrrole]-2,4′(5′H)-dione] |  |  | 0.0855 | 1320
15 | COc1ncc(-c2nc3c(n2C(C)C)[C@]2(C(=O)Nc4cc(Cl)ccc42)N(c2ccc(F)c(Cl)c2)C3=O)c(OC)n1 [Example R-3, (R)-6-chloro-5′-(3-chloro-4-fluorophenyl)-2′-(2,4-dimethoxypyrimidin-5-yl)-3′-isopropyl-3′H-spiro[dihydroindole-3,4′-pyrrolo[3,4-d]imidazole]-2,6′(5′H)-dione] |  |  | 1.19 | 16300
16 | COc1cc(C2CC2)ncc1-c1nc2c(n1C(C)C)C1(C(=O)Nc3cc(Cl)ccc31)N(c1cc(Cl)ccc1C)C2=O (stereo not drawn) [Example 103, 6-chloro-5′-(5-chloro-2-methylphenyl)-2′-(6-cyclopropyl-4-methoxypyridin-3-yl)-3′-isopropyl-3′H-spiro[dihydroindole-3,4′-pyrrolo[3,4-d]imidazole]-2,6′(5′H)-dione] | better | better |  | 
17 | COc1cc(N)c(C)cc1-c1nc2c(n1C(C)C)C1(C(=O)Nc3cc(Cl)ccc31)N(c1cc(Cl)ccc1C)C2=O (stereo not drawn) [Example 74, 2′-(4-amino-2-methoxy-5-methylphenyl)-6-chloro-5′-(5-chloro-2-methylphenyl)-3′-isopropyl-3′H-spiro[dihydroindole-3,4′-pyrrolo[3,4-d]imidazole]-2,6′(5′H)-dione] | better | better |  | 
18 | COc1cc(C(F)(F)F)ccc1-c1nc2c(n1C(C)C)[C@@]1(C(=O)Nc3cc(Cl)ccc31)N(c1cc(Cl)ccc1C)C2=O [Example S-85, (S)-6-chloro-5′-(5-chloro-2-methylphenyl)-3′-isopropyl-2′-(2-methoxy-4-(trifluoromethyl)phenyl)-3′H-spiro[dihydroindole-3,4′-pyrrolo[3,4-d]imidazole]-2,6′(5′H)-dione] |  |  | 0.0033 | 40.2
19 | COc1cc(N(C)C)ncc1-c1nc2c(n1C(C)C)[C@]1(C(=O)Nc3cc(Cl)ccc31)N(c1cccc(Cl)c1)C2=O [Example R-113, (R)-6-chloro-5′-(3-chlorophenyl)-2′-(6-(dimethylamino)-4-methoxypyridin-3-yl)-3′-isopropyl-3′H-spiro[dihydroindole-3,4′-pyrrolo[3,4-d]imidazole]-2,6′(5′H)-dione] |  |  | 0.0505 | 2170
20 | COc1cc(N)ccc1-c1nc2c(n1C(C)C)[C@]1(C(=O)Nc3cc(Cl)ccc31)N(c1cc(F)cc(Cl)c1)C2=O [Example R-67, (R)-2′-(4-amino-2-methoxyphenyl)-6-chloro-5′-(3-chloro-5-fluorophenyl)-3′-isopropyl-3′H-spiro[dihydroindole-3,4′-pyrrolo[3,4-d]imidazole]-2,6′(5′H)-dione] |  |  | 0.355 | 8490
21 | CCOc1cc(OC)c(-c2nc3c(n2C(C)C)[C@@]2(C(=O)Nc4cc(Cl)ccc42)N(c2cc(F)cc(Cl)c2)C3=O)cn1 [Example S-139, (S)-6-chloro-5′-(3-chloro-5-fluorophenyl)-2′-(6-ethoxy-4-methoxypyridin-3-yl)-3′-isopropyl-3′H-spiro[dihydroindole-3,4′-pyrrolo[3,4-d]imidazole]-2,6′(5′H)-dione] |  |  | 0.00136 | 50.7
